# Experimental data published in the supplement of paper PMC10307832.
# Assays:
# Assay in all cases: relative viability (nuclei count vs DMSO), 5 days (fraction); higher = more cells survive
# [1] = compound: Cc1ccc2nc(NCCN)c3ncc(C)n3c2c1 + CC1(C)CCC(c2ccc(Cl)cc2)=C(CN2CCN(c3ccc(C(=O)NS(=O)(=O)c4ccc(N[C@H](CCN5CCOCC5)CSc5ccccc5)c(S(=O)(=O)C(F)(F)F)c4)cc3)CC2)C1 [Navitoclax] (partner 0.5 µM)
# How it was run: (§1)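 Medians of duplicate plates are given as relative viability. That measure is the nuclei count in treated wells divided by the count in vehicle wells. Counts were taken on 4× images of lung cancer cell lines in 1536-well plates, 5 days after pin-tool dosing the day after seeding with one drug alone or a fixed anchor-drug dose plus five library-drug doses (not always all listed) in √10 steps.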
# [2] = compound: Cc1ccc2nc(NCCN)c3ncc(C)n3c2c1 + N=C(N)NC(=N)NCCc1ccccc1 [Phenformin] (partner 250 µM)
# How it was run: as §1
# [3] = compound: O=C(/C=C/c1ccccc1)NC(NC(=S)Nc1cccc2cccnc12)C(Cl)(Cl)Cl [Salubrinal] + CCNC(=O)c1noc(-c2cc(C(C)C)c(O)cc2O)c1-c1ccc(CN2CCOCC2)cc1 [Luminespib] (partner 0.01 µM)
# How it was run: as §1
# [4] = compound: O=C(/C=C/c1ccccc1)NC(NC(=S)Nc1cccc2cccnc12)C(Cl)(Cl)Cl [Salubrinal] + Cc1nc(NC(=O)N2CCC[C@H]2C(N)=O)sc1-c1ccnc(C(C)(C)C(F)(F)F)c1 [Alpelisib] (partner 2 µM)
# How it was run: as §1
Cell Line,relative viability ([1]; first compound 0.04 µM),relative viability ([1]; first compound 0.1265 µM),relative viability ([1]; first compound 0.4 µM),relative viability ([1]; first compound 1.265 µM),relative viability ([1]; first compound 4 µM),relative viability ([2]; first compound 0.04 µM),relative viability ([2]; first compound 0.1265 µM),relative viability ([2]; first compound 0.4 µM),relative viability ([2]; first compound 1.265 µM),relative viability ([2]; first compound 4 µM),relative viability ([3]; first compound 0.08 µM),relative viability ([3]; first compound 0.253 µM),relative viability ([3]; first compound 0.8 µM),relative viability ([3]; first compound 2.53 µM),relative viability ([3]; first compound 8 µM),relative viability ([4]; first compound 0.08 µM),relative viability ([4]; first compound 0.253 µM),relative viability ([4]; first compound 0.8 µM),relative viability ([4]; first compound 2.53 µM),relative viability ([4]; first compound 8 µM)
NCI-H1734,0.818,0.803,0.8,0.808,0.803,0.425,0.417,0.355,0.38,0.389,0.174,0.175,0.199,0.17,0.241,0.721,0.695,0.833,0.737,0.749
NCI-H1755,1.04,0.971,0.997,1.02,0.98,0.661,0.665,0.581,0.625,0.583,0.414,0.637,0.707,0.293,0.378,1.04,0.795,1.01,0.948,0.893
NCI-H1792,0.642,0.658,0.645,0.619,0.594,0.308,0.436,,0.411,0.358,0.574,,0.472,0.624,0.587,0.8,,0.646,0.676,0.611
NCI-H1793,0.467,0.417,0.418,0.477,0.476,0.435,0.422,0.272,0.324,0.32,0.231,0.168,0.206,0.162,0.244,1,0.722,0.837,0.798,0.617
NCI-H1915,0.793,,0.781,0.774,0.766,0.359,0.384,,0.377,0.359,0.918,0.559,1.26,0.71,0.752,1.06,1.08,1.11,1.06,1.04
NCI-H1944,1.11,1.01,1.04,1.06,1.03,0.201,0.196,0.201,0.187,0.195,0.792,1.04,0.807,0.733,0.831,0.912,0.912,0.871,0.871,0.795
NCI-H1975,1.06,1.12,1.08,0.952,0.863,0.415,0.394,0.432,0.414,0.355,0.223,0.394,0.292,0.257,0.282,0.713,0.467,0.766,0.674,0.579
NCI-H1993,0.799,0.782,0.676,0.752,0.692,0.506,0.514,0.591,0.552,0.495,0.899,0.681,0.987,0.896,0.827,0.62,0.595,0.735,0.688,0.676
NCI-H2009,1.19,1.08,1.17,1.17,1.09,0.514,0.399,0.489,0.401,0.393,1.09,0.966,0.984,0.995,0.878,1.16,1.1,1.19,1.16,1.07
NCI-H2023,1.05,0.999,1.03,1.03,0.954,0.466,0.409,0.434,0.437,0.349,0.884,0.703,0.874,0.517,0.884,0.679,0.586,0.688,0.587,0.488
NCI-H2085,1.27,1.12,1.08,1.06,1.08,0.817,0.762,0.711,0.722,0.744,0.473,0.47,0.562,0.366,0.496,1.09,0.879,0.923,0.936,0.981
NCI-H2087,0.985,1.09,1.01,0.856,1.06,0.464,0.491,0.423,0.482,0.477,0.151,0.164,0.16,0.187,0.183,1.14,0.861,1.05,1.33,1.09
NCI-H2126,0.881,0.886,0.815,0.746,0.792,0.528,0.544,0.516,0.535,0.506,0.958,0.833,1.03,0.951,0.877,0.808,0.767,0.812,0.727,0.725
NCI-H2170,0.687,0.659,0.59,0.601,0.598,0.402,0.408,0.435,0.424,0.446,0.854,0.686,0.642,0.643,0.714,0.883,0.703,0.859,0.811,0.706
NCI-H2228,0.794,0.843,0.702,0.732,0.674,0.29,0.525,0.452,0.284,0.244,0.105,0.0961,0.154,0.108,0.174,0.87,0.582,0.792,0.861,0.725
NCI-H2347,0.871,0.723,0.715,0.787,0.677,0.521,0.55,0.513,0.345,0.417,0.786,0.63,0.381,0.512,0.403,1.11,0.928,1.25,1.06,1.08
